Broadly, the IC50 is the concentration that gives 50% inhibition.

From patent publication EP4563579A1, “MACROCYCLIC EGFR INHIBITOR, AND PREPARATION METHOD THEREFOR AND PHARMACEUTICAL USE THEREOF” (Abbisko Therapeutics Co., Ltd., priority 2022, dated 2024) come the findings set out here.

Common to all, as to type: cell-based
One assay relates to A431 WT. Kind of assay: Cell proliferation assay (CellTiter-Glo), A431 WT. To be noted: Homo sapiens, A-431; A431 WT cells, 72 hour incubation, CTG readout. The method, then:
(§1) • DMEM Medium (Gibco, Cat#11965118) • RPMI1640 Medium (Gibco, Cat#11875119) • Fetal Bovine Serum (FBS) (GBICO, Cat#10099-141) • CellTiter-Glo® Luminescent Cell Viability Assay Kit (Promega, Cat#G7572) 96-well, Black, Clear Flat Bottom Plate (Corning®, Cat# 3603)
(§2) • SpectraMax Multimode Microplate Reader MD, 2104-0010A; • CO2 Incubator, Thermo Scientific 3100 Series; • Biosafety Cabinet, Thermo Scientific, 1300 Series A2; • Inverted Microscope, Olympus, CKX41SF; • Siemens Refrigerator, KK25E76TI.
(§3) • 1. Cell Culture and Inoculation: • (1) Harvest cells in a logarithmic growth phase and count the cells using a […]. Test cell viability using a trypan blue exclusion method to ensure that cell viability is above 90%. • (2) Adjust the cell concentration to desired final density; and add 90 µL of cell suspension to a 96-well plate. • (3) Incubate the cells overnight at 37°C, under 5% CO2 and 95% humidity in the 96-well plate. • 2. T0 Reference Data: • (1) Add 10 µL PBS to each well of the T0 plate containing cells. • (2) Thaw the CTG reagent and equilibrate the plate to room temperature for 30 minutes. • (3) Add an equal volume of CTG solution to each well. • (4) Lyse cells by shaking on an orbital shaker for 5 minutes. • (5) Leave the plate at room temperature for 20 minutes to stabilize the luminescence signal. • (6) Read the T0 […]. • 3. Compound Dilution and Addition • (1) Add a corresponding volume of DMSO to a corresponding compound powder according to the compound information sheet to prepare a 10 mM stock solution. • (2) Prepare 1000-fold and 3.16-fold diluted compound solutions. • (3) Dilute the 1000× diluted compound solution 100-fold with PBS to prepare a 10-fold compound solution, with a maximum concentration of 10 µM, nine concentrations and 3.16-fold dilution. Then add 10 µL of the drug solution concentration to individual wells of the 96-well plate seeded with cells. Test each compound concentration in triplicate wells, and the final DMSO concentration is 0.1%. • (4) Incubate the cells in the 96-well plate containing the drug compounds at 37°C, under 5% CO2, and 95% humidity for an additional 72 hour period prior to performing the CTG analysis. • 4. Fluorescence Signal Reading • (1) Thaw the CTG reagent and equilibrate the plate to room temperature for 30 minutes. • (2) Add an equal volume of CTG solution to each well. • (3) Lyse cells by shaking on an orbital shaker for 5 minutes. • (4) Leave the plate at room temperature for 20 minutes to stabilize the […]. • (5) Read fluorescence value. • 5. Data Processing
(§4) Analyze the data by using GraphPad Prism 7.0 software, and use Non-linear S-curve regression to fit the dose-response curves, to calculate the IC50 values (in nM). The specific experiment results are presented in Table 1: [formula] Table 1: Biology Test Results
A general note: In ATP-based viability assays light output follows the ATP content of the culture.

Assay [1] has as its system Ba/F3 EGFR-L858R-T790M-C797S (LTC). In words: Cell proliferation assay (CellTiter-Glo), Ba/F3 LTC. The conditions noted are these: Mus musculus, BaF3; Ba/F3 EGFR-L858R-T790M-C797S cells, 72 hour incubation, CTG readout. The procedure: as §1, §2, §3, §4
Assay [2] relates to Ba/F3 EGFR-DEL19-C797S (DC). Kind of assay: Cell proliferation assay (CellTiter-Glo), Ba/F3 DC. To be noted: Mus musculus, BaF3; Ba/F3 EGFR-DEL19-C797S cells, 72 hour incubation, CTG readout. The procedure:
as §1, §2, §3, §4

The subject of assay [3] is Ba/F3 EGFR-L858R-C797S (LC). Kind of assay: Cell proliferation assay (CellTiter-Glo), Ba/F3 LC. The conditions noted are these: Mus musculus, BaF3; Ba/F3 EGFR-L858R-C797S cells, 72 hour incubation, CTG readout. The procedure:
as §1, §2, §3, §4

Assay [4] has as its system Ba/F3 EGFR-DEL19-T790M-C797S (DTC). Kind of assay: Cell proliferation assay (CellTiter-Glo), Ba/F3 DTC. To be noted: Ba/F3 EGFR-DEL19-T790M-C797S cells, 72 hour incubation, CTG readout; read-out: IC50 BaF3 DTC. The procedure:
as §1, §2, §3, §4

Regarding `Cn1ncc2c1OCC1(CCCC1)Cn1nc(N3CC[C@](C)(O)C3)c3cnc(cc31)Nc1ccnc-2n1` [Example 23, (S)-3-methyl-1-(1'-methylspiro(cyclopentane-1,6'-8-oxa-3-aza-4(6,1)-pyrazolo[4,3-c]pyridina-2(2,4)-pyrimidina-1(4,5)-pyrazolacyclooctaphane)-3'-yl)pyrrolidin-3-ol], the IC50 amounted to 0.771 µM in the assay on A431 WT; 0.0081 µM in assay [1]; 0.0078 µM in assay [2]; 0.0195 µM in assay [3]; 0.0035 µM in assay [4].

On to `Cn1ncc2c1OCC1(CCC1)Cn1nc(N3CC(CS(C)(=O)=O)C3)c3cnc(cc31)Nc1ccnc-2n1` [Example 25, 1'-methyl-3'-(3-((methylsulfonyl)methyl)azetidin-1-yl)s piro(cyclobutane-1,6'-8-oxa-3-aza-4(6,1)-pyrazolo[4,3-c]pyridina-2(2,4)-pyrimidina-1(4,5)-pyrazolacyclooctaphane)], for which the half-maximal inhibitory concentration (IC50) with A431 WT amounted to 0.571 µM; in assay [1] it was 0.106 µM; in assay [2], 0.0665 µM; in assay [3], 0.123 µM; in assay [4] it was 0.0426 µM.

As to `Cn1ncc2c1OCC1(CCCC1)Cn1nc(N3CC(CS(C)(=O)=O)C3)c3cnc(cc31)Nc1ccnc-2n1` [Example 26, 1'-methyl-3'-(3-((methylsulfonyl)methyl)azetidin-1-yl)s piro(cyclopentane-1,6'-8-oxa-3-aza-4(6,1)-pyrazolo[4,3-c]pyridina-2(2,4)-pyrimidina-1(4,5)-pyrazolacyclooctaphane)], the IC50 in the assay on A431 WT came to 0.645 µM; in assay [1], 0.0285 µM; in assay [2] it was 0.0114 µM; in assay [3], 0.0335 µM; in assay [4], 0.0163 µM.

Take `Cn1ncc2c1OCC1(CCCC1)Cn1nc(N3CC[C@@H](CS(C)(=O)=O)C3)c3cnc(cc31)Nc1ccnc-2n1` [Example 27, (R)-1'-methyl-3'-(3-((methylsulfonyl)methyl)pyrrolidin-1-yl)spiro(cyclopentane-1 ,6'-8-oxa-3-aza-4(6,1)-pyrazolo[4,3-c]pyridina-2(2,4)-pyrimidina-1(4,5)-pyrazolacyclooctaphane)]: the IC50 with A431 WT was found to be 0.587 µM; in assay [1], 0.0052 µM; in assay [2], 0.0011 µM; in assay [3], 0.0134 µM; in assay [4], 0.001 µM.

For the compound `Cn1ncc2c1OCC1(CCCC1)Cn1nc(N3CCC[C@@H](CS(C)(=O)=O)C3)c3cnc(cc31)Nc1ccnc-2n1` [Example 28, (R)-1'-methyl-3'-(3-((methylsulfonyl)methyl)piperidin-1-yl)spiro(cyclopentane-1, 6'-8-oxa-3-aza-4(6,1)-pyrazolo[4,3-c]pyridina-2(2,4)-pyrimidina-1(4,5)-pyrazolacyclooctaphane)], the IC50 was 0.682 µM in the assay on A431 WT; 0.0869 µM in assay [1]; 0.0128 µM in assay [2]; 0.0457 µM in assay [3]; 0.0124 µM in assay [4].

Take `Cn1ncc2c1OCC1(CCCC1)Cn1nc(N3CC[C@@H](CS(=O)(=O)C4CC4)C3)c3cnc(cc31)Nc1ccnc-2n1` [Example 30]: the IC50 was 0.744 µM in the assay with A431 WT; 0.0058 µM in assay [1]; 0.0025 µM in assay [2]; 0.0118 µM in assay [3]; 0.0024 µM in assay [4].

With `CC(C)S(=O)(=O)C[C@@H]1CCN(c2nn3c4cc(ncc24)Nc2ccnc(n2)-c2cnn(C)c2OCC2(CCCC2)C3)C1` [Example 31, (R)-3'-(3-((isopropylsulfonyl)methyl)pyrrolidin-1-yl)-1 '-methylspiro(cyclopentane-1,6'-8-oxa-3-aza-4(6,1)-pyrazolo[4,3-c]pyridina-2(2,4)-pyrimidina-1(4,5)-pyrazolacyclooctaphane)], the IC50 in the assay on A431 WT was determined as 0.366 µM; in assay [1], 0.0043 µM; in assay [2], 0.0035 µM; in assay [3], 0.0108 µM; in assay [4], 0.0048 µM.

Turning to `Cn1ncc2c1OCC1(CCCCC1)Cn1nc(N3CC[C@@H](CS(C)(=O)=O)C3)c3cnc(cc31)Nc1ccnc-2n1` [Example 32, (R)-1'-methyl-3'-(3-((methylsulfonyl)methyl)pyrrolidin-1-yl)spiro(cyclohexane-1, 6'-8-oxa-3-aza-4(6,1)-pyrazolo[4,3-c]pyridina-2(2,4)-pyrimidina-1(4,5)-pyrazolacyclooctaphane)], the IC50 stood at 0.543 µM in the assay on A431 WT; 0.0121 µM in assay [1]; 0.0051 µM in assay [2]; 0.0149 µM in assay [3]; 0.0105 µM in assay [4].

As to `Cn1ncc2c1OCC1(CCCCC1)Cn1nc(N3CC[C@H](CS(C)(=O)=O)C3)c3cnc(cc31)Nc1ccnc-2n1` [Example 36, (S)-1'-methyl-3'-(3-((methylsulfonyl)methyl)pyrrolidin-1-yl)spiro(cyclohexane-1,6' -8-oxa-3-aza-4(6,1)-pyrazolo[4,3-c]pyridina-2(2,4)-pyrimidina-1(4,5)-pyrazolacyclooctaphane)], the half-maximal inhibitory concentration (IC50) turned out to be 0.614 µM in the assay with A431 WT; 0.002 µM in assay [1]; 0.0025 µM in assay [2]; 0.0051 µM in assay [3]; 0.0015 µM in assay [4].

For the compound `CCCCS(=O)(=O)C[C@H]1CCN(c2nn3c4cc(ncc24)Nc2ccnc(n2)-c2cnn(C)c2OCC2(CCCC2)C3)C1` [Example 43, (S)-3'-(3-((butylsulfonyl)methyl)pyrrolidin-1-yl)-1'-me thylspiro(cyclopentane-1,6' -8-oxa-3-aza-4(6,1)-pyrazolo[4,3-c]pyridina-2(2,4)-pyrimidina-1(4,5)-pyrazolacyclooctaphane)], the IC50 came out at 0.7 µM with A431 WT; 0.0013 µM in assay [1]; 0.005 µM in assay [2]; 0.0029 µM in assay [3]; 0.0036 µM in assay [4].

For the compound `Cn1ncc2c1OCC1(CCCC1)Cn1nc(N3CC[C@H](CS(=O)(=O)C4CCC4)C3)c3cnc(cc31)Nc1ccnc-2n1` [Example 44, (S)-3'-(3-((cyclobutylsulfonyl)methyl)pyrrolidin-1-yl)-1 '-methylspiro(cyclopentane-1,6'-8-oxa-3-aza-4(6,1)-pyrazolo[4,3-c]pyridina-2(2,4)-pyrimidina-1(4,5)-pyrazolacyclooctaphane)], the IC50 in the assay on A431 WT worked out at 1.13 µM; in assay [1] it was 0.0019 µM; in assay [2], 0.0101 µM; in assay [3] it was 0.0053 µM; in assay [4] it was 0.004 µM.

Consider `Cn1ncc2c1OCC1(CCCC1)Cn1nc(N3CC[C@H](CS(=O)(=O)C4CCCC4)C3)c3cnc(cc31)Nc1ccnc-2n1` [Example 45, (S)-3'-(3-((cyclopentylsulfonyl)methyl)pyrrolidin-1-yl)-1'-methylspiro(cyclopentane-1,6'-8-oxa-3-aza-4(6,1)-pyrazolo[4,3-c]pyridina-2(2, 4)-pyrimidina-1(4,5)-pyrazolacyclooctaphane)], for which the IC50 with A431 WT worked out at 0.738 µM; in assay [1], 0.0011 µM; in assay [2], 0.004 µM; in assay [3], 0.0029 µM; in assay [4], 0.0039 µM.

As to `Cn1ncc2c1OCC1(CCCC1)Cn1nc(N3CC[C@@H](NS(C)(=O)=O)C3)c3cnc(cc31)Nc1ccnc-2n1` [Example 48, (R)-N-(1-(1'-methylspiro(cyclopentane-1,6'-8-oxa-3-aza-4(6,1)-pyrazolo[4,3-c]pyridina-2(2,4)-pyrimidina-1(4,5)-pyrazolacyclooctaphane)-3'-yl)pyrrolidin-3-yl)metha nesulfonamide], the half-maximal inhibitory concentration (IC50) with A431 WT was 0.357 µM; in assay [1], 0.0045 µM; in assay [2], 0.0025 µM; in assay [3], 0.0076 µM; in assay [4], 0.002 µM.
